Test results published in patent publication US20250026743A1, “HETEROARYL-LINKED ANALOGS AS MGLU5 NEGATIVE ALLOSTERIC MODULATORS AND METHODS OF MAKING AND USING THE SAME” (Vanderbilt University, priority 2021, published 2025).
Like-named read-outs stand apart in the source and are kept apart here.

Target: T1, hmGlu5 (Homo sapiens, UniProt P41594)
T1 construct: expressed in transfected cells; host or cells: HEK 293A
Experiment: mGlu5 Ca2+ flux assay in HEK 293A cells (negative allosteric modulation of glutamate EC80 response)
Format: cell-based
Conditions: for remaining activity at 30 µM: HEK293-A, read-out: hmGlu5 NAM Emin (%); for IC50: HEK 293A cells, Ca2+ flux, glutamate EC80, >10,000 = decrease without plateau, read-out: hmGlu5 NAM IC50
How it was run: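 HEK 293A cells stably expressing rat or human mGlu5, Fluo-4 AM loaded; compound added 2.3 min before glutamate EC20, then EC80; Ca2+ fluorescence peak amplitudes (F/F0) normalised to glutamate max. IC50 from 4-parameter logistic fit, 10-point 1:3 curves, top 30 μM; partial NAMs plateau above 10% Glu Max.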

T1 sequence (P41594 21-1212): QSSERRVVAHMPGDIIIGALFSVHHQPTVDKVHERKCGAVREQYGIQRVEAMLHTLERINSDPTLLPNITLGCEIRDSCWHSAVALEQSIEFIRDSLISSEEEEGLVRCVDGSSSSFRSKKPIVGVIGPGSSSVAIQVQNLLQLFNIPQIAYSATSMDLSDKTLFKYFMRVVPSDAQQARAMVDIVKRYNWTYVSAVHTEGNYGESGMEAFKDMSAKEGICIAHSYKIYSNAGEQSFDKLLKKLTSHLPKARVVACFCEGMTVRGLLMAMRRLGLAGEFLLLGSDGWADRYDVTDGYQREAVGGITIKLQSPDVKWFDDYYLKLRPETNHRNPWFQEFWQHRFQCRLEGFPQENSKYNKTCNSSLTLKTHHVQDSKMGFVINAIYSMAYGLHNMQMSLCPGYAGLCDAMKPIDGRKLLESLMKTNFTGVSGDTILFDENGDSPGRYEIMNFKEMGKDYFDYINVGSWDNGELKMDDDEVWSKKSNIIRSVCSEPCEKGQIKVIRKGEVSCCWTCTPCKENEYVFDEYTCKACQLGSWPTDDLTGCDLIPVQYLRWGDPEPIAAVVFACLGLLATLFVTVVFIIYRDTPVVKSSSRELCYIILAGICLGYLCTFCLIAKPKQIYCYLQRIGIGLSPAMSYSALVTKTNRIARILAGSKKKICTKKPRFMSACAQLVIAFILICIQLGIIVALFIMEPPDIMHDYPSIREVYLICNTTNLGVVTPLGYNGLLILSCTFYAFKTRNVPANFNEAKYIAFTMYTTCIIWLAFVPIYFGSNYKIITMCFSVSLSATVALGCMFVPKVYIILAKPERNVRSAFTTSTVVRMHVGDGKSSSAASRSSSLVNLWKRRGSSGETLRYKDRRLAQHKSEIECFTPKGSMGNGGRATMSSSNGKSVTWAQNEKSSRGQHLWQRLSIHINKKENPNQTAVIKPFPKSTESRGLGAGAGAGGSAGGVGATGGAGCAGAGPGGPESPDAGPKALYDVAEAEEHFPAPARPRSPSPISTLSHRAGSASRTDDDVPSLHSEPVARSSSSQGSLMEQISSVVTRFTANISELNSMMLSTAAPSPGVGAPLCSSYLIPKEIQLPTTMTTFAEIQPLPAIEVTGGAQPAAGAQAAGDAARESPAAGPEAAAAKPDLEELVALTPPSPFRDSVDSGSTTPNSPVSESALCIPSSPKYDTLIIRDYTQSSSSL

Row | IC50 | remaining activity at 30 µM (% Glu max at 30 μM) | Structure (SMILES) | remaining activity at 30 µM
1 | 452 nM | 2% | COc1c(-c2cncc(F)c2)cc(-c2noc(-c3ccc(F)cn3)n2)nc1C [Compound 11, 3-(5-fluoro-5′-methoxy-6′-methyl-[3,4′-bipyridin]-2′-yl)-5-(5-fluoropyridin-2-yl)-1,2,4-oxadiazole] | –
2 | 482 nM | 2% | COc1c(-c2cnccc2C)cc(-c2nc(-c3ccc(F)cn3)no2)nc1C [Compound 13, 3-(5-fluoropyridin-2-yl)-5-(5′-methoxy-4,6′-dimethyl-[3,4′-bipyridin]-2′-yl)-1,2,4-oxadiazole] | –
3 | 757 nM | 3% | Cc1nc(-c2noc(-c3ccc(F)cn3)n2)cc(-c2cncc(C#N)c2)c1F [Compound 68, 3′-fluoro-6′-(5-(5-fluoropyridin-2-yl)-1,2,4-oxadiazol-3-yl)-2′-methyl-[3,4′-bipyridine]-5-carbonitrile] | –
4 | 245 nM | 3% | Cc1ccnc(-c2nc(-c3cc(-c4cnccc4C)c(F)c(C)n3)no2)c1 [Compound 88, 3-(5′-fluoro-4,6′-dimethyl-[3,4′-bipyridin]-2′-yl)-5-(4-methylpyridin-2-yl)-1,2,4-oxadiazole] | –
5 | 359 nM | 3% | Cc1nc(-c2noc(-c3ccc(F)cn3)n2)cc(-c2cc(F)cnc2Cl)c1F [Compound 32, 3-(2-chloro-5,5′-difluoro-6′-methyl-[3,4′-bipyridin]-2′-yl)-5-(5-fluoropyridin-2-yl)-1,2,4-oxadiazole] | –
6 | 641 nM | 2% | COc1c(-c2cnccc2C)cc(-c2noc(-c3ccc(F)cn3)n2)nc1C [Compound 10, 5-(5-fluoropyridin-2-yl)-3-(5′-methoxy-4,6′-dimethyl-[3,4′-bipyridin]-2′-yl)-1,2,4-oxadiazole] | –
7 | 123 nM | 2% | Cc1cc(-c2cncc(F)c2)cc(-c2nc(-c3ccc(F)cn3)no2)n1 [Compound 90, 5-(5-fluoro-6′-methyl-[3,4′-bipyridin]-2′-yl)-3-(5-fluoropyridin-2-yl)-1,2,4-oxadiazole] | –
8 | 161 nM | 3% | Cc1nc(-c2noc(-c3ccc(F)cn3)n2)cc(-c2cc(F)cc(F)c2)c1F [Compound 67, 3-(4-(3,5-difluorophenyl)-5-fluoro-6-methylpyridin-2-yl)-5-(5-fluoropyridin-2-yl)-1,2,4-oxadiazole] | –
9 | > 10000 nM | 36% | Cc1ccn(Cc2nc(-c3cc(-c4cnccc4C)c(F)c(C)n3)no2)n1 [Compound 65, 3-(5′-fluoro-4,6′-dimethyl-[3,4′-bipyridin]-2′-yl)-5-((3-methyl-1H-pyrazol-1-yl)methyl)-1,2,4-oxadiazole] | –
10 | 577 nM | 8% | Cc1nc(-c2noc(-c3ccc(F)cn3)n2)cc(-c2ccc(Cl)nc2)c1F [Compound 34, 3-(6-chloro-5′-fluoro-6′-methyl-[3,4′-bipyridin]-2′-yl)-5-(5-fluoropyridin-2-yl)-1,2,4-oxadiazole] | –
11 | 125 nM | 6% | Fc1ccc(-c2nc(-c3cc(-c4cncc(F)c4)cc(C(F)F)n3)no2)nc1 [Compound 61, 3-(6′-(difluoromethyl)-5-fluoro-[3,4′-bipyridin]-2′-yl)-5-(5-fluoropyridin-2-yl)-1,2,4-oxadiazole] | –
12 | 1070 nM | 12% | Cc1nc(-c2noc(-c3ccncc3)n2)cc(-c2cncc(F)c2)c1F [Compound 51, 3-(5,5′-difluoro-6′-methyl-[3,4′-bipyridin]-2′-yl)-5-(pyridin-4-yl)-1,2,4-oxadiazole] | –
13 | 221 nM | 2% | Cc1ccncc1-c1cc(-c2noc(-c3ccncc3)n2)nc(C)c1F [Compound 93, 3-(5′-fluoro-4,6′-dimethyl-[3,4′-bipyridin]-2′-yl)-5-(pyridin-4-yl)-1,2,4-oxadiazole] | –
14 | 1090 nM | 3% | Cc1cccc(-c2nc(-c3cc(-c4cnccc4C)c(F)c(C)n3)no2)n1 [Compound 22, 3-(5′-fluoro-4,6′-dimethyl-[3,4′-bipyridin]-2′-yl)-5-(6-methylpyridin-2-yl)-1,2,4-oxadiazole] | –
15 | 744 nM | 2% | Cc1ccncc1-c1cc(-c2noc(-c3cc(F)ccn3)n2)ncc1F [Compound 3, 3-(5′-fluoro-4-methyl-[3,4′-bipyridin]-2′-yl)-5-(4-fluoropyridin-2-yl)-1,2,4-oxadiazole] | –
16 | 339 nM | 2% | COc1c(-c2cncc(F)c2)cc(-c2nc(-c3ccc(F)cn3)no2)nc1C [Compound 14, 5-(5-fluoro-5′-methoxy-6′-methyl-[3,4′-bipyridin]-2′-yl)-3-(5-fluoropyridin-2-yl)-1,2,4-oxadiazole] | –
17 | 166 nM | 1% | Cc1ccncc1-c1cc(-c2nc(-c3ccc(F)cn3)no2)ncc1F [Compound 4, 5-(5′-fluoro-4-methyl-[3,4′-bipyridin]-2′-yl)-3-(5-fluoropyridin-2-yl)-1,2,4-oxadiazole] | –
18 | 81 nM | 3% | Cc1nc(-c2noc(-c3ccc(F)cc3)n2)cc(-c2cncc(F)c2)c1F [Compound 48, 3-(5,5′-difluoro-6′-methyl-[3,4′-bipyridin]-2′-yl)-5-(4-fluorophenyl)-1,2,4-oxadiazole] | –

Continued, compound first:

Row | Structure (SMILES) | IC50 | remaining activity at 30 µM (% Glu max at 30 μM) | remaining activity at 30 µM
19 | Cc1csc(-c2nnc(-c3cc(-c4cncc(F)c4)c(F)c(C)n3)o2)n1 [Compound 83, 2-(5,5′-difluoro-6′-methyl-[3,4′-bipyridin]-2′-yl)-5-(4-methylthiazol-2-yl)-1,3,4-oxadiazole] | 600 nM | – | 2%
20 | Cc1nc(-c2noc(-c3cscn3)n2)cc(-c2cncc(F)c2)c1F [Compound 52, 3-(5,5′-difluoro-6′-methyl-[3,4′-bipyridin]-2′-yl)-5-(thiazol-4-yl)-1,2,4-oxadiazole] | > 10000 nM | 18% | –
21 | Cc1csc(-c2noc(-c3cc(-c4cncc(F)c4)c(F)c(C)n3)n2)n1 [Compound 104, 5-(5,5′-difluoro-6′-methyl-[3,4′-bipyridin]-2′-yl)-3-(4-methylthiazol-2-yl)-1,2,4-oxadiazole] | 122 nM | 1% | –
22 | Cc1nc(-c2nc(-c3ccc(F)cc3)no2)cc(-c2cncc(F)c2)c1F [Compound 46, 5-(5,5′-difluoro-6′-methyl-[3,4′-bipyridin]-2′-yl)-3-(4-fluorophenyl)-1,2,4-oxadiazole] | 677 nM | 3% | –
23 | Cc1nc(-c2nc(-c3cscn3)no2)cc(-c2cncc(F)c2)c1F [Compound 53, 5-(5,5′-difluoro-6′-methyl-[3,4′-bipyridin]-2′-yl)-3-(thiazol-4-yl)-1,2,4-oxadiazole] | 481 nM | 23% | –
24 | Cc1nc(-c2nnc(-c3cccnc3)o2)cc(-c2cncc(F)c2)c1F [Compound 80, 2-(5,5′-difluoro-6′-methyl-[3,4′-bipyridin]-2′-yl)-5-(pyridin-3-yl)-1,3,4-oxadiazole] | 3340 nM | – | 58%
25 | Cc1ccncc1-c1cc(-c2nnc(-c3cccc(F)c3)o2)nc(C)c1F [Compound 40, 2-(5′-fluoro-4,6′-dimethyl-[3,4′-bipyridin]-2′-yl)-5-(3-fluorophenyl)-1,3,4-oxadiazole] | 705 nM | 2% | –
26 | Cc1nc(-c2nnc(-c3ccc(F)cn3)o2)cc(-c2cncc(F)c2)c1F [Compound 43, 2-(5,5′-difluoro-6′-methyl-[3,4′-bipyridin]-2′-yl)-5-(5-fluoropyridin-2-yl)-1,3,4-oxadiazole] | 179 nM | – | 2%
27 | COc1c(-c2cncc(F)c2)cc(-c2n[nH]c(-c3ccccc3F)n2)nc1C [Compound 100, 5-fluoro-6′-(5-(2-fluorophenyl)-1H-1,2,4-triazol-3-yl)-3′-methoxy-2′-methyl-3,4′-bipyridine] | 300 nM | 2% | –
28 | Cc1nc(-c2noc(-c3cccnc3)n2)cc(-c2cncc(F)c2)c1F [Compound 50, 3-(5,5′-difluoro-6′-methyl-[3,4′-bipyridin]-2′-yl)-5-(pyridin-3-yl)-1,2,4-oxadiazole] | 1560 nM | 34% | –
29 | Cc1nc(-c2nnc(-c3ccc(F)cn3)o2)cc(-c2cnsc2)c1F [Compound 110, 2-(5-fluoro-4-(isothiazol-4-yl)-6-methylpyridin-2-yl)-5-(5-fluoropyridin-2-yl)-1,3,4-oxadiazole] | 185 nM | 2% | –
30 | [2H]C([2H])([2H])c1cc(-c2cncc(F)c2)cc(-c2nnc(-c3ccc(F)cn3)o2)n1 [Compound 85, 2-(5-fluoro-6′-(methyl-d3)-[3,4′-bipyridin]-2′-yl)-5-(5-fluoropyridin-2-yl)-1,3,4-oxadiazole] | 450 nM | 1% | –
31 | Fc1ccc(-c2noc(-c3cc(-c4cncc(F)c4)cc(C(F)F)n3)n2)nc1 [Compound 78, 5-(6′-(difluoromethyl)-5-fluoro-[3,4′-bipyridin]-2′-yl)-3-(5-fluoropyridin-2-yl)-1,2,4-oxadiazole] | 149 nM | 2% | –
32 | CCn1cc(-c2cc(-c3nnc(-c4ccc(F)cn4)o3)nc(C)c2F)cn1 [Compound 75, 2-(4-(1-ethyl-1H-pyrazol-4-yl)-5-fluoro-6-methylpyridin-2-yl)-5-(5-fluoropyridin-2-yl)-1,3,4-oxadiazole] | 591 nM | 2% | –
33 | Cc1cccc(-c2nnc(-c3cc(-c4cncc(F)c4)c(F)c(C)n3)o2)n1 [Compound 58, 2-(5,5′-difluoro-6′-methyl-[3,4′-bipyridin]-2′-yl)-5-(6-methylpyridin-2-yl)-1,3,4-oxadiazole] | > 10000 nM | – | 31%
